According to patent US20260317320A1, “C5AR1 ANTAGONISTS AND USES THEREOF” (Vanqua Bio, Inc., priority 2022, published 2026):
Where two headings read alike, the source gives them in different places.

How the values were obtained:
[1] = target: T1, complement C5a receptor 1 (C5aR1) (Homo sapiens, UniProt P21730); test: β-arrestin recruitment via C5aR1 activation in live CHO-K1 cells (PathHunter), antagonist mode; assay type: cell-based; conditions: antagonist mode; recombinant hC5a (EC90) as competing natural agonist; live CHO-K1 cells; read-out: [Antagonist] B-arrestin2 recruitment: Average IC50
T1 construct: β-galactosidase fragment (PathHunter enzyme complementation); host or cells: CHO-K1 (PathHunter CHO-K1 C5aR1 β-arrestin cell line)
T1 sequence (P21730 1-350): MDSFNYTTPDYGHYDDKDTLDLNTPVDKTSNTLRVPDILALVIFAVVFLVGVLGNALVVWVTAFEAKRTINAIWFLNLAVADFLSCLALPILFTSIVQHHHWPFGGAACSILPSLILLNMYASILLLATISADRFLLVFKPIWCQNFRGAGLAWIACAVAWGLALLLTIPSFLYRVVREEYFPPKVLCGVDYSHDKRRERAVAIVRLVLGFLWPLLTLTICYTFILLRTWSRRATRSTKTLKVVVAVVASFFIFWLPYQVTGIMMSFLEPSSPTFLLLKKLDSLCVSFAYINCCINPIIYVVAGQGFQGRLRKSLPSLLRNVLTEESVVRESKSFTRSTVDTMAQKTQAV
Summary of the method: (§1)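 Live CHO-K1 cells expressing β-galactosidase fragments fused to β-arrestin and C5aR1; recruitment is read by fragment complementation. In agonist mode compounds are tested alone; in antagonist mode they compete against recombinant hC5a at EC90. IC50 reported in binned ranges.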

[2] = target: T1, complement C5a receptor 1 (C5aR1); test: β-arrestin recruitment via C5aR1 activation in live CHO-K1 cells (PathHunter), agonist mode; assay type: cell-based
Summary of the method: as §1

IC50 [1] [nM] | [Agonist] B-arrestin2 recruitment: Average EC50 (nM) [2] | [Agonist] B-arrestin2 recruitment: Average EC50 (nM) ([2]; at 10 μM) | SMILES
500 to 5000 | Non-Active | – | Cc1ncc2cc(C3CCN(c4c(C)cccc4F)CC3)c(=O)n(Cc3nccnc3C(F)(F)F)c2n1 [compound 47, 6-(1-(2-Fluoro-6-methylphenyl)piperidin-4-yl)-2-methyl-8-((3-(trifluoromethyl)pyrazin-2-yl)methyl)pyrido[2,3-d]pyrimidin-7(8H)-one]
< 500 | Non-Active | – | Cc1cnc2cc([C@H]3CC[C@H](c4c(C)cccc4F)CC3)c(=O)n(Cc3ncccc3OC(F)(F)F)c2n1 [compound 152, 7-((1r,4r)-4-(2-Fluoro-6-methylphenyl)cyclohexyl)-3-methyl-5-((3-(trifluoromethoxy)pyridin-2-yl)methyl)pyrido[2,3-b]pyrazin-6(5H)-one]
< 500 | Non-Active | – | Cc1cnc2cc(C3CCN(c4cnsc4C)CC3)c(=O)n(Cc3ncccc3C(F)(F)F)c2n1 [compound 145, 3-Methyl-7-(1-(5-methylisothiazol-4-yl)piperidin-4-yl)-5-((3-(trifluoromethyl)pyridin-2-yl)methyl)pyrido[2,3-b]pyrazin-6(5H)-one]
500 to 5000 | Non-Active | – | Cc1cnc2c(cc(C3CCN(c4c(C)cccc4F)CC3)c(=O)n2Cc2ccccc2C(F)(F)F)n1 [compound 55, 7-(1-(2-Fluoro-6-methylphenyl)piperidin-4-yl)-2-methyl-5-(2-(trifluoromethyl)-benzyl)-pyrido[2,3-b]pyrazin-6(5H)-one]
< 500 | Non-Active | – | Cc1cnc2cc(C3CCN(c4c(C)cccc4F)CC3)c(=O)n(Cc3nccnc3C(F)F)c2n1 [compound 120, 5-((3-(Difluoromethyl)pyrazin-2-yl)methyl)-7-(1-(2-fluoro-6-methylphenyl)piperidin-4-yl)-3-methylpyrido[2,3-b]pyrazin-6(5H)-one]
< 500 | – | Non-Active at 10 μM | Cc1cccc(F)c1N1CCC(c2cc3nccnc3n(Cc3nccnc3OC(F)F)c2=O)CC1 [compound 155, 5-((3-(Difluoromethoxy)pyrazin-2-yl)methyl)-7-(1-(2-fluoro-6-methylphenyl)piperidin-4-yl)pyrido[2,3-b]pyrazin-6(5H)-one]
500 to 5000 | – | Non-Active at 10 μM | Cc1cnc2cc([C@H]3CC[C@H](c4c(C)cccc4F)CC3)c(=O)n([C@@H]3CCC(F)(F)c4nccnc43)c2n1 [174B, 5-((R)-8,8-Difluoro-5,6,7,8-tetrahydroquinoxalin-5-yl)-7-((1r,4R)-4-(2-fluoro-6-methylphenyl)cyclohexyl)-3-methylpyrido[2,3-b]pyrazin-6(5H)-one]
< 500 | – | Non-Active at 10 μM | COc1nccnc1Cn1c(=O)c([C@H]2CC[C@H](c3c(C)cccc3F)CC2)cc2ncc(C)nc21 [compound 173, 7-((1r,4r)-4-(2-Fluoro-6-methylphenyl)cyclohexyl)-5-((3-methoxypyrazin-2-yl)methyl)-3-methylpyrido[2,3-b]pyrazin-6(5H)-one]
500 to 5000 | Non-Active | – | Cc1cccc(F)c1N1CCC(c2cc3nccnc3n([C@H]3CCCc4nccnc43)c2=O)CC1 [43b, (S)-7-(1-(2-Fluoro-6-methylphenyl)piperidin-4-yl)-5-(5,6,7,8-tetrahydroquinoxalin-5-yl)pyrido[2,3-b]pyrazin-6(5H)-one]
500 to 5000 | Non-Active | – | COc1nccnc1Cn1c(=O)c(C2CCN(c3c(C)cccc3F)CC2)cc2nccnc21 [compound 5, 7-(1-(2-Fluoro-6-methylphenyl)piperidin-4-yl)-5-((3-methoxypyrazin-2-yl)methyl)pyrido[2,3-b]pyrazin-6(5H)-one]
